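The compound was tested at five concentrations on cells cultured in 96-well plates, with a 48-hour exposure period. TGI is the concentration that stops growth completely.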
Columns and labels:
Experiment in all cases: DTP human tumour cell line panel, 48 h
HOP-92 NSCLC = system: HOP-92 NSCLC
OVCAR-4 ovarian = system: OVCAR-4 ovarian
OVCAR-3 ovarian = system: OVCAR-3 ovarian
MDA-MB-435 = system: MDA-MB-435
SK-MEL-5 melanoma = system: SK-MEL-5 melanoma
NCI-H226 lung = system: NCI-H226 lung
SK-MEL-28 melanoma = system: SK-MEL-28 melanoma
RXF 393 renal = system: RXF 393 renal
ACHN renal = system: ACHN renal
T-47D breast = system: T-47D breast
A549 NSCLC = system: A549 NSCLC
BT-549 breast = system: BT-549 breast
A498 renal = system: A498 renal
U251 CNS = system: U251 CNS
HCT-15 colon = system: HCT-15 colon
SK-MEL-2 melanoma = system: SK-MEL-2 melanoma
SR leukemia = system: SR leukemia
UO-31 renal = system: UO-31 renal
SW-620 colon = system: SW-620 colon
SNB-75 CNS = system: SNB-75 CNS
786-0 renal = system: 786-0 renal
PC-3 prostate = system: PC-3 prostate
SF-295 CNS = system: SF-295 CNS
MDA-MB-231 breast = system: MDA-MB-231 breast
CCRF-CEM leukemia = system: CCRF-CEM leukemia
SF-268 CNS = system: SF-268 CNS
LOX IMVI melanoma = system: LOX IMVI melanoma
HCT-116 colon = system: HCT-116 colon
M14 melanoma = system: M14 melanoma
OVCAR-5 ovarian = system: OVCAR-5 ovarian
HOP-62 NSCLC = system: HOP-62 NSCLC
NCI-H522 lung = system: NCI-H522 lung
RPMI-8226 leukemia = system: RPMI-8226 leukemia
SN12C renal = system: SN12C renal
OVCAR-8 ovarian = system: OVCAR-8 ovarian
UACC-257 melanoma = system: UACC-257 melanoma
K-562 leukemia = system: K-562 leukemia
TK-10 renal = system: TK-10 renal
SNB-19 CNS = system: SNB-19 CNS
NCI-H460 lung = system: NCI-H460 lung
DU-145 prostate = system: DU-145 prostate
NCI-H23 lung = system: NCI-H23 lung
MOLT-4 leukemia = system: MOLT-4 leukemia
COLO 205 colon = system: COLO 205 colon
HL-60(TB) leukemia = system: HL-60(TB) leukemia
HS 578T breast = system: HS 578T breast
EKVX NSCLC = system: EKVX NSCLC
CAKI-1 renal = system: CAKI-1 renal
SK-OV-3 ovarian = system: SK-OV-3 ovarian
NCI/ADR-RES ovarian = system: NCI/ADR-RES ovarian
UACC-62 melanoma = system: UACC-62 melanoma
MCF7 breast = system: MCF7 breast
HT29 colon = system: HT29 colon
HCC-2998 colon = system: HCC-2998 colon
MALME-3M melanoma = system: MALME-3M melanoma
IGROV1 ovarian = system: IGROV1 ovarian
MDA-N = system: MDA-N
KM12 colon = system: KM12 colon

## O=C(NCc1ccccc1)c1cc2ccccc2oc1=Nc1cccc(C(F)(F)F)c1
HOP-92 NSCLC
  TGI: > 100 µM
OVCAR-4 ovarian
  TGI: > 100 µM
OVCAR-3 ovarian
  TGI: > 100 µM
MDA-MB-435
  TGI: > 100 µM
SK-MEL-5 melanoma
  TGI: 70.8 µM
NCI-H226 lung
  TGI: 97.7 µM
SK-MEL-28 melanoma
  TGI: > 100 µM
RXF 393 renal
  TGI: > 100 µM
ACHN renal
  TGI: > 100 µM
T-47D breast
  TGI: > 100 µM
A549 NSCLC
  TGI: > 100 µM
BT-549 breast
  TGI: > 100 µM
A498 renal
  TGI: > 100 µM
U251 CNS
  TGI: > 100 µM
HCT-15 colon
  TGI: > 100 µM
SK-MEL-2 melanoma
  TGI: > 100 µM
SR leukemia
  TGI: 66.1 µM
UO-31 renal
  TGI: > 100 µM
SW-620 colon
  TGI: > 100 µM
SNB-75 CNS
  TGI: > 100 µM
786-0 renal
  TGI: > 100 µM
PC-3 prostate
  TGI: > 100 µM
SF-295 CNS
  TGI: > 100 µM
MDA-MB-231 breast
  TGI: > 100 µM
CCRF-CEM leukemia
  TGI: > 100 µM
SF-268 CNS
  TGI: > 100 µM
LOX IMVI melanoma
  TGI: > 100 µM
HCT-116 colon
  TGI: > 100 µM
M14 melanoma
  TGI: > 100 µM
OVCAR-5 ovarian
  TGI: > 100 µM
HOP-62 NSCLC
  TGI: > 100 µM
NCI-H522 lung
  TGI: > 100 µM
RPMI-8226 leukemia
  TGI: > 100 µM
SN12C renal
  TGI: 62.7 µM
OVCAR-8 ovarian
  TGI: > 100 µM
UACC-257 melanoma
  TGI: 84 µM
K-562 leukemia
  TGI: > 100 µM
TK-10 renal
  TGI: > 100 µM
SNB-19 CNS
  TGI: > 100 µM
NCI-H460 lung
  TGI: > 100 µM
DU-145 prostate
  TGI: > 100 µM
NCI-H23 lung
  TGI: > 100 µM
MOLT-4 leukemia
  TGI: 92.5 µM
COLO 205 colon
  TGI: 90.2 µM
HL-60(TB) leukemia
  TGI: 49.9 µM
HS 578T breast
  TGI: > 100 µM
EKVX NSCLC
  TGI: > 100 µM
CAKI-1 renal
  TGI: > 100 µM
SK-OV-3 ovarian
  TGI: > 100 µM
NCI/ADR-RES ovarian
  TGI: > 100 µM
UACC-62 melanoma
  TGI: > 100 µM
MCF7 breast
  TGI: > 100 µM
HT29 colon
  TGI: > 100 µM
HCC-2998 colon
  TGI: 61.1 µM
MALME-3M melanoma
  TGI: > 100 µM
IGROV1 ovarian
  TGI: > 100 µM
MDA-N
  TGI: > 100 µM
KM12 colon
  TGI: > 100 µM
